Measured values published in ChEMBL document CHEMBL6114988, “Design, synthesis and biological evaluation of dual CDK9/PARP inhibitors for the treatment of cancer” (Eur J Med Chem, 2025).

Experiments:
[1] = tested on: MDA-MB-231; assay: Induction of apoptosis in human MDA-MB-231 cells assessed as necrotic cell at 2 uM incubated for 24 hrs by Annexin V-FITC/PI staining based analysis (reference value: 0.10 %); type: functional
[2] = Metabolic stability in artificial intestinal fluid assessed as parent compound remaining at 1 mg/ml incubated for 8 hrs by HPLC analysis; type: ADME; conditions: read-out: Stability
[3] = tested on: MDA-MB-231; assay: cells; conditions: Homo sapiens, MDA-MB-231, 48 h
Description: Antiproliferative activity against human MDA-MB-231 cells assessed as inhibition of cell proliferation incubated for 48 hrs by CCK-8 assay

[4] = tested on: MV4-11; assay: Antiproliferative activity against human MV4-11 cells assessed as inhibition of cell proliferation incubated for 48 hrs by CCK-8 assay; type: functional, cell-based; conditions: MV4-11, 48 h
[5] = tested on: MDA-MB-231; assay: Induction of apoptosis in human MDA-MB-231 cells assessed as late apoptotic cell at 2 uM incubated for 24 hrs by Annexin V-FITC/PI staining based analysis (reference value: 2.61 %); type: functional
[6] = Metabolic stability in rat liver microsomes assessed as half life at 1 mg/ml incubated for 60 min in presence of NADPH by HPLC analysis; type: ADME, Microsome
[7] = tested on: HCT-116; assay: cells; conditions: Homo sapiens, HCT-116, 48 h
Description: Antiproliferative activity against human HCT-116 cells assessed as inhibition of cell proliferation incubated for 48 hrs by CCK-8 assay

[8] = Metabolic stability in artificial gastric fluid assessed as parent compound remaining at 1 mg/ml incubated for 8 hrs by HPLC analysis; type: ADME; conditions: read-out: Stability
[9] = tested on: MDA-MB-231; assay: Induction of apoptosis in human MDA-MB-231 cells assessed as viable cell at 2 uM incubated for 24 hrs by Annexin V-FITC/PI staining based analysis (reference value: 96.3 %); type: functional
[10] = tested on: MDA-MB-231; assay: Induction of cell cycle arrest in human MDA-MB-231 cells assessed as accumulation of cells at G2/M phase at 2 uM incubated for 24 hrs by PI staining based flow cytometric analysis (reference value: 11.3%); type: functional
[11] = tested on: MDA-MB-231; assay: Induction of cell cycle arrest in human MDA-MB-231 cells assessed as accumulation of cells at G1 phase at 2 uM incubated for 24 hrs by PI staining based flow cytometric analysis (reference value: 58.1%); type: functional
[12] = tested on: MOLM-13; assay: Antiproliferative activity against human MOLM-13 cells assessed as inhibition of cell proliferation incubated for 48 hrs by CCK-8 assay; type: functional, cell-based; conditions: MOLM-13, 48 h
[13] = tested on: MCF7; assay: cells; conditions: Homo sapiens, MCF7, 48 h
Description: Antiproliferative activity against human MCF7 cells assessed as inhibition of cell proliferation incubated for 48 hrs by CCK-8 assay

[14] = tested on: MDA-MB-231; assay: Induction of cell cycle arrest in human MDA-MB-231 cells assessed as accumulation of cells at S phase at 2 uM incubated for 24 hrs by PI staining based flow cytometric analysis (reference value: 29.2%); type: functional
[15] = tested on: MDA-MB-231; assay: Induction of apoptosis in human MDA-MB-231 cells assessed as early apoptotic cell at 2 uM incubated for 24 hrs by Annexin V-FITC/PI staining based analysis (reference value: 0.96 %); type: functional
[16] = Metabolic stability in plasma assessed as parent compound remaining incubated for 3 hrs by HPLC analysis; type: ADME, cell-free; conditions: read-out: Stability
[17] = biological target: Poly [ADP-ribose] polymerase 1 (Homo sapiens, UniProt P09874); assay: Inhibition of PARP1 (unknown origin) incubated for 1 hr by ELISA
Sequence of Poly [ADP-ribose] polymerase 1 (P09874 whole entry): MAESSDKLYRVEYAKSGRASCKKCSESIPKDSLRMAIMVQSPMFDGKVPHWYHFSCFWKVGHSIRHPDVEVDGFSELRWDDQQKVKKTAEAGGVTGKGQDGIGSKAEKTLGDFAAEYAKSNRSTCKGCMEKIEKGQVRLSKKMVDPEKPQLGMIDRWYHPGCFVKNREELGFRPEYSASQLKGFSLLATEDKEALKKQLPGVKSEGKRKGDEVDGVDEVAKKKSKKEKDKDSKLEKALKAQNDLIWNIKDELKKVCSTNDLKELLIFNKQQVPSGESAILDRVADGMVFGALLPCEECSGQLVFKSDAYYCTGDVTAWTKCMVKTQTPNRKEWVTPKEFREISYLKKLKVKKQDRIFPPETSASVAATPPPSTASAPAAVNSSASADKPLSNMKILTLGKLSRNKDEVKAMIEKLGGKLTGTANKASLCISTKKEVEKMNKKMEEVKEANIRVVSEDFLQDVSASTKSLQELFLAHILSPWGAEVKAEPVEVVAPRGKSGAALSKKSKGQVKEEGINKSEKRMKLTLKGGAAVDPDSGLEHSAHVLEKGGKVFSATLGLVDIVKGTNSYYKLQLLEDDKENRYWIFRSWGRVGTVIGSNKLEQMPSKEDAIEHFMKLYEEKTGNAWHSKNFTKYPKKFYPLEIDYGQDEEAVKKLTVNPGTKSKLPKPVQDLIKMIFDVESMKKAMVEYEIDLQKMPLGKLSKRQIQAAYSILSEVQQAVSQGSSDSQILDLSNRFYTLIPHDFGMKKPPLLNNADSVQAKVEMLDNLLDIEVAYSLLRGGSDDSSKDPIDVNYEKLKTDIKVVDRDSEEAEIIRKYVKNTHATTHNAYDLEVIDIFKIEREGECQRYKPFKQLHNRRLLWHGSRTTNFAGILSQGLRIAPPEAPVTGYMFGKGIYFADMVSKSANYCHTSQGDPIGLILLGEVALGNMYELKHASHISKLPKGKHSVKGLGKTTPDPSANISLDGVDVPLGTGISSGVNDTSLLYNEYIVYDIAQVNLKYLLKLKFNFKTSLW

[18] = biological target: Cyclin-dependent kinase 9 (Homo sapiens, UniProt P50750)
Sequence of Cyclin-dependent kinase 9 (P50750 whole entry): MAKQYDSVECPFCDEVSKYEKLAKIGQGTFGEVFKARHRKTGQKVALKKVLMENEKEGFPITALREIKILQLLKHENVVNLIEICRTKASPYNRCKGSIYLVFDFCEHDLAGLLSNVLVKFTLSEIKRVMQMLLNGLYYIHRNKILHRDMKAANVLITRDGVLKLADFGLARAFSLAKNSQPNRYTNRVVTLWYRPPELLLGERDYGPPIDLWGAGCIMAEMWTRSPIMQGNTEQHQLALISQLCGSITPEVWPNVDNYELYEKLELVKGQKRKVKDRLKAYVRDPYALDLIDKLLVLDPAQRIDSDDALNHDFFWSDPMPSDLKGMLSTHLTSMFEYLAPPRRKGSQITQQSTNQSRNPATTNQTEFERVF
Description: Inhibition of CDK9 (unknown origin) using lipid substrate incubated for 40 mins in presence of ATP by kinase-Glo plus luminescence assay

[19] = tested on: MDA-MB-231; assay: Induction of apoptosis in human MDA-MB-231 cells assessed as viable cell at 1 uM incubated for 24 hrs by Annexin V-FITC/PI staining based analysis (reference value: 96.3 %); type: functional
[20] = tested on: MDA-MB-231; assay: Induction of cell cycle arrest in human MDA-MB-231 cells assessed as accumulation of cells at G2/M phase at 1 uM incubated for 24 hrs by PI staining based flow cytometric analysis (reference value: 11.3%); type: functional
[21] = tested on: MDA-MB-231; assay: Induction of apoptosis in human MDA-MB-231 cells assessed as necrotic cell at 1 uM incubated for 24 hrs by Annexin V-FITC/PI staining based analysis (reference value: 0.10 %); type: functional
[22] = tested on: MDA-MB-231; assay: Induction of apoptosis in human MDA-MB-231 cells assessed as early apoptotic cell at 1 uM incubated for 24 hrs by Annexin V-FITC/PI staining based analysis (reference value: 0.96 %); type: functional
[23] = tested on: MDA-MB-231; assay: Induction of apoptosis in human MDA-MB-231 cells assessed as late apoptotic cell at 1 uM incubated for 24 hrs by Annexin V-FITC/PI staining based analysis (reference value: 2.61 %); type: functional
[24] = tested on: MDA-MB-231; assay: Induction of cell cycle arrest in human MDA-MB-231 cells assessed as accumulation of cells at S phase at 1 uM incubated for 24 hrs by PI staining based flow cytometric analysis (reference value: 29.2%); type: functional
[25] = tested on: HeLa; assay: cells; conditions: Homo sapiens, 48 h
Description: Antiproliferative activity against human HeLa cells assessed as inhibition of cell proliferation incubated for 48 hrs by CCK-8 assay

[26] = tested on: MDA-MB-231; assay: Induction of cell cycle arrest in human MDA-MB-231 cells assessed as accumulation of cells at G1 phase at 1 uM incubated for 24 hrs by PI staining based flow cytometric analysis (reference value: 58.1%); type: functional
[27] = biological target: CDK9/cyclin T1 (Homo sapiens) (UniProt O60563+P50750); conditions: dose 200.0 nM, time 70.0 min

SMILES | IC50 [3] [nM] | IC50 [4] [nM] | IC50 [7] [nM] | IC50 [12] [nM] | IC50 [13] [nM] | IC50 [17] [nM] | IC50 [18] [nM] | also measured
O=C(c1cc(Cc2n[nH]c(=O)c3ccccc23)ccc1F)N1CCN(C(=O)C2CC2)CC1 [OLAPARIB] | > 50000 | 15200 | 200000 | 43100 | 195000 |  |  | Activity [1]: 0.48%; remaining at 8 h, 1 mg/ml [2]: 100%; Activity [5]: 2.13%; half-life at 1 mg/ml [6]: 1.86 h; remaining at 8 h, 1 mg/ml [8]: 99.4%; Activity [9]: 96.8%; Activity [10]: 14.1%; Activity [11]: 48.7%; Activity [14]: 35.8%; Activity [15]: 0.59%; remaining at 3 h [16]: 99.4%
COc1cc(F)ccc1-c1cc(Nc2cc(CS(C)(=N)=O)ccn2)ncc1F (stereo not given) [ENITOCICLIB] | 270 | 110 | 180 | 80 | 50 |  |  | Activity [19]: 82.1%; Activity [20]: 16.5%; remaining at 8 h, 1 mg/ml [2]: 97.4%; half-life at 1 mg/ml [6]: 5.78 h; Activity [21]: 3.8%; remaining at 8 h, 1 mg/ml [8]: 101%; Activity [22]: 6.48%; Activity [23]: 7.66%; Activity [24]: 29.1%; IC50 [25]: 200 nM; Activity [26]: 54.9%; remaining at 3 h [16]: 96%
COc1cc(F)ccc1-c1nc(Nc2cc(CN3CCN(C(=O)c4cc(Cc5n[nH]c(=O)c6ccccc56)ccc4F)CC3)ccn2)ncc1F |  |  |  |  |  | 91 | 2350 | 
COc1ccc(F)cc1-c1cc(Nc2cc(CN3CCN(C(=O)c4cc(Cc5n[nH]c(=O)c6ccccc56)ccc4F)CC3)ccn2)ncc1F |  |  |  |  |  | 48 | 31 | 

Second part, led by results:

IC50 [3] [nM] | IC50 [4] [nM] | IC50 [7] [nM] | IC50 [12] [nM] | IC50 [13] [nM] | IC50 [17] [nM] | IC50 [18] [nM] | SMILES | also measured
 |  |  |  |  | 14 | 315 | COc1ccc(OC)c(-c2cc(Nc3cc(CN4CCN(C(=O)c5cc(Cc6n[nH]c(=O)c7ccccc67)ccc5F)CC4)ccn3)ncn2)c1 | 
 |  |  |  |  | 16 | 61 | COc1cccc(F)c1-c1cc(Nc2cc(CN3CCN(C(=O)c4cc(Cc5n[nH]c(=O)c6ccccc56)ccc4F)CC3)ccn2)ncc1F | 
> 50000 | 1420 | 2520 | 4050 | > 50000 | 10 | 29 | COc1ccc(-c2cc(Nc3cc(CN4CCN(C(=O)c5cc(Cc6n[nH]c(=O)c7ccccc67)ccc5F)CC4)ccn3)ncn2)c(OC)c1 | IC50 [25]: 1210 nM; inhibition [27]: 73.9%
